{
  "source": "paper PMC7314547",
  "about": "“Echinoderms provide missing link in the evolution of PrRP/sNPF-type neuropeptide signalling” (eLife, 2020)",
  "key": {"NPR-11": {"system": "NPR-11", "details": "ref Chalasani et al., 2010; cited from earlier work", "text": "The nematode C. elegans is a powerful model system for functional characterisation of neuropeptide signalling systems ([Frooninckx et al., 2012]). However, NPY/NPF-type signalling has thus far only been partially characterised in this species. […] However, this peptide shares little sequence similarity with NPY/NPF-typ ..."}, "[1]": {"system": "A. rubens sNPF/PrRP-type receptor Ar-sNPF/PrRPR", "test": "Receptor activation: luminescence of CHO-K1 cells expressing Ar-sNPF/PrRPR, Gα16 and apoaequorin-GFP fusion (G5A) (CHO-Ar-sNPF/PrRPR)", "format": "cell-based, Asterias rubens", "details": "for luminescence response / receptor activation (in words): at least three independent experiments in triplicate", "experimental": "A cDNA encoding Ar-sNPF/PrRPR was cloned and sequenced (Figure 3—figure supplement 1) and its sequence has been deposited in GenBank under accession number MH807444.1. […] The cloned receptor was then co-expressed with Gα16 in CHO-K1 cells expressing apoaequorin to produce the cell system CHO-Ar-sNPF/PrRPR. Synthetic ArPrRP (p[…]-NH2) was tested as a candidate ligand for Ar-sNPF/PrRPR at concentrations ranging from 10^−14 M to 10^−5 M, comparing with cells incubated in assay media without the addition of the peptide. […] Because ArPrRP contains a potential dibasic cleavage site (see underlined arginine residues in its sequence: p[…]-NH2), we hypothesised that the C-terminal pentapeptide of ArPrRP (LNPRFamide) may also be generated from ArPrRPP in vivo. Therefore, we also tested synthetic LNPRFamide as a candidate ligand for Ar-sNPF/PrRPR. […] Therefore, we conclude that the 22-residue amidated peptide ArPrRP is the natural ligand for Ar-sNPF/PrRPR in A. rubens.\nFigure 5. A. rubens PrRP-like peptide ArPrRP acts as a ligand for the A. rubens sNPF/PrRP-type receptor Ar-sNPF/PrRPR. (A) The A. rubens PrRP-like peptide ArPrRP (10^−5 M; red bar) triggers luminescence in CHO-K1 cells expressing the A. rubens PrRP/sNPF-type receptor Ar-sNPF/PrRPR, the promiscuous G-protein Gα16 and the calcium-sensitive luminescent GFP-apoaequorin fusion protein G5A. For comparison, the background luminescence of cells that were not exposed to ArPrRP is shown (basal media; grey bar). Mean values (± S.E.M) were determined from three independent experiments performed in triplicate (B). Graph showing the selectivity of ArPrRP as a ligand for Ar-sNPF/PrRPR. […] Ar-sNPF/PrRPR is not activated by a C-terminal pentapeptide fragment of ArPrRP (LNPRFamide) or by the A. rubens luqin-type peptide ArLQ. Each point represents mean values (± S.E.M) from at least three independent experiments done in triplicate. The raw data for the experiments shown in Figure 5 and in Figure 5—figure supplement 2 can be found in Figure 5—source data 1. Figure 5—source data 1. Data for the graphs shown in Figure 5 and Figure 5—figure supplement 2. Figure 5—figure supplement 1. Predicted topology of Ar-sNPF/PrRPR. Seven predicted transmembrane domains are numbered successively in blue and two predicted N-glycosylation sites are shown with green boxes. This figure was generated using Protter (http://wlab.ethz.ch/protter/start/). [drawing 6] Figure 5—figure supplement 2. […] Each point represents mean values (± S.E.M.) from at least three independent experiments, with each experiment performed in triplicate. [drawing 7]\nTo enable the pharmacological characterisation of a candidate receptor for the A. rubens NPY/NPF/PrRP-like peptide, a cDNA encoding this receptor was cloned into the eukaryotic expression vector pcDNA 3.1(+) (Invitrogen; Cat. No. V790-20). To facilitate expression of the cloned receptor, the forward primer included a partial Kozak consensus sequence (ACC) and a sequence corresponding to the first 15 bases of the open reading frame of contig 1120879 (ACCATGCAGATGACAACC) and the reverse primer consisted of a stop codon and a sequence reverse complementary to the 3’ region of the open reading frame of contig 1120879 ([…]). PCR was performed using the forward primer and reverse primers, A. rubens radial nerve cord cDNA and Q5 polymerase (NEB; Cat. No. M0491S). […] Successful ligation and the direction of the insert was determined by restriction enzyme digestion and sequencing (TubeSeq service; Eurofins Genomics). […]"}, "[2]": {"system": "CHO-K1 cells transfected with an empty pcDNA 3.1(+) vector", "test": "Control: luminescence of CHO-K1 (G5A) cells transfected with empty pcDNA 3.1(+) vector", "format": "cell-based, Cricetulus griseus", "details": "cells transfected with vector alone; at least three independent experiments in triplicate", "experimental": "A cDNA encoding Ar-sNPF/PrRPR was cloned and sequenced (Figure 3—figure supplement 1) and its sequence has been deposited in GenBank under accession number MH807444.1. […] The cloned receptor was then co-expressed with Gα16 in CHO-K1 cells expressing apoaequorin to produce the cell system CHO-Ar-sNPF/PrRPR. Synthetic ArPrRP (p[…]-NH2) was tested as a candidate ligand for Ar-sNPF/PrRPR at concentrations ranging from 10^−14 M to 10^−5 M, comparing with cells incubated in assay media without the addition of the peptide. […] Because ArPrRP contains a potential dibasic cleavage site (see underlined arginine residues in its sequence: p[…]-NH2), we hypothesised that the C-terminal pentapeptide of ArPrRP (LNPRFamide) may also be generated from ArPrRPP in vivo. Therefore, we also tested synthetic LNPRFamide as a candidate ligand for Ar-sNPF/PrRPR. […]\nFigure 5. […] (A) The A. rubens PrRP-like peptide ArPrRP (10^−5 M; red bar) triggers luminescence in CHO-K1 cells expressing the A. rubens PrRP/sNPF-type receptor Ar-sNPF/PrRPR, the promiscuous G-protein Gα16 and the calcium-sensitive luminescent GFP-apoaequorin fusion protein G5A. For comparison, the background luminescence of cells that were not exposed to ArPrRP is shown (basal media; grey bar). Mean values (± S.E.M) were determined from three independent experiments performed in triplicate (B). […]"}},
  "note": "Entries after “also recorded” stand apart in the source; their conditions may differ. Where no end group is shown, it is not given here.",
  "data": [
    {"substance": "MDANAFRMSF-NH2", "values": [
      {"measurement": "receptor activation (in words)", "setting": "NPR-11", "result": "only showed activation at peptide concentrations of 10 and 30 µM"}
    ]},
    {"substance": "LNPRFamide [C-terminal pentapeptide of ArPrRP]", "values": [
      {"measurement": "luminescence response / receptor activation (in words)", "setting": "[1]", "result": "did not induce luminescence responses; also recorded: not activated"}
    ]},
    {"substance": "pQDRSKAMQAERTGQLRRLNPRF-NH2 [ArPrRP, 22-residue amidated starfish PrRP-type neuropeptide, custom synthesised]", "values": [
      {"measurement": "ligand potency (in words)", "setting": "[1]", "result": "potent ligand"},
      {"measurement": "luminescence response relative to background (basal media)", "setting": "[1]; 10^-5 M, mean of three independent experiments in triplicate", "result": "approximately five times the background luminescence"},
      {"measurement": "EC50", "setting": "[1]; 10^-14 M to 10^-5 M in DMEM/F12, luminescence integrated over 30 s, four-parameter curve, at least three independent transfections in triplicate, read-out: EC50 (half-maximal response concentration)", "result": 0.15, "unit": "nM"},
      {"measurement": "luminescence response / receptor activation (in words)", "setting": "[1]", "result": "induced dose-dependent luminescence; also recorded: causes dose-dependent luminescence"},
      {"measurement": "luminescence response (in words)", "setting": "[2]", "result": "no response; also recorded: does not trigger luminescence"}
    ]}
  ]
}
